Holding throughout (experiment): NCI anticancer screen, dose series, 48 h
Assay [1] concerns OVCAR-8 ovarian.
For assay [2], the system named is NCI-H23 lung.
In assay [3] the test system is SW-620 colon.
The test system of assay [4] is SK-MEL-2 melanoma.
For assay [5], the system named is OVCAR-3 ovarian.
Assay [6] has as its system SNB-75 CNS.
Assay [7] concerns U251 CNS.
Assay [8] concerns ACHN renal.
Assay [9] has as its system HT29 colon.

Each structure is given as a SMILES string.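 Grown in 96-well plates, cells were treated for 48 hours with each compound at five concentrations. Insufficient inhibition: endpoint recorded as highest concentration tested. GI50 marks 50% less growth. At the TGI there is no net growth.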

On to `OC(c1cccc(C(F)(F)F)c1)c1cnccc1NC1CCCCCC1` (centres undefined), for which the GI50 was 2.1 µM in assay [1]; 1.85 µM in assay [2]; 1.72 µM in assay [3]; 1.71 µM in assay [4]; 2.35 µM in assay [5]; 1.77 µM in assay [6]. Besides, the figures for the GI50 in assay [7], in assay [8] and in assay [9] were 1.83 µM, 1.69 µM and 1.78 µM, respectively. The TGI in assay [1] was found to be 4.59 µM; in assay [2], 5.39 µM; in assay [3], 3.37 µM; in [4], 3.34 µM; in assay [5], 6.23 µM; in assay [6], 8.25 µM. For the same compound, the TGI in assay [7] is 3.43 µM; in assay [8] it was 3.24 µM; in assay [9], 3.72 µM.

Regarding `CCCNC(=O)OCc1c(COC(=O)NCCC)c(-c2ccc(Cl)c(Cl)c2)n2c1CCC2`, the TGI in [1] was determined as 16.9 µM; in [2] it was 26.5 µM; in assay [3] it was 20.6 µM; in assay [5] it was 41.5 µM; in assay [7], 28.9 µM; in assay [8], 6.28 µM. In assay [9], the TGI came to 19.2 µM.

For the compound `COC(=O)[C@@H](C)C[C@H](Cc1ccccc1)NC(=O)c1nc([C@@H](C[C@H](C(C)C)N(C)C(=O)[C@@H](NC(=O)[C@H]2CCCN2C)C(C)C)OC(C)=O)sc1C`, the GI50 in assay [1] is < 0.0025 µM; in assay [2] it was 0.00806 µM; in [3], < 0.0025 µM; in assay [4], < 0.0025 µM; in assay [5], < 0.0025 µM; in assay [6], < 0.0025 µM. Besides, the GI50 in assay [7] is 0.00347 µM. Also, the TGI in [1], in assay [2], in assay [3], in assay [4], in assay [5] and in assay [6] was > 25 µM each time. The TGI in assay [7] was > 25 µM.

On to `ClCc1ccccc1CSc1ncnc2nc[nH]c12`, for which the GI50 in [1], in assay [2], in assay [3], in assay [5], in assay [6] and in assay [7] was > 60 µM in each case. For the same compound, the GI50 in assay [8] and in [9] was > 60 µM throughout. The TGI in assay [1], in [2], in assay [3], in assay [5], in assay [6] and in assay [7] was > 60 µM throughout. Besides, the TGI in assay [8] and in [9] was > 60 µM each time.

In the case of `COC(=O)C(CC(=O)c1cc2c(cc1I)OCO2)Cc1cc(OC)c(OC)c(OC)c1I` (centres undefined), the TGI in [1], in assay [2], in [3], in [4], in [5] and in assay [7] was > 100 µM each time. Further, the TGI in assay [8] and in [9] was > 100 µM throughout.

Consider `S=C1NCCN1C1=Nc2ccccc2CO1`, for which the GI50 in assay [1] is > 100 µM; in assay [2] it was > 100 µM; in assay [3], > 100 µM; in assay [5], > 100 µM; in assay [6], 22.5 µM; in assay [7] it was > 100 µM. For the same compound, the GI50 in assay [8] and in assay [9] was > 100 µM each time. For the same compound, the TGI in [1], in assay [2], in [3], in [5], in [6] and in assay [7] was > 100 µM each time. Besides, the TGI in assay [8] and in assay [9] was > 100 µM each time.

Consider `O=C(/C=C(\[O-])c1ccccc1)CCCCCCC(=O)/C=C(\[O-])c1ccccc1.O=C(/C=C(\[O-])c1ccccc1)CCCCCCC(=O)/C=C(\[O-])c1ccccc1.O=C(/C=C(\[O-])c1ccccc1)CCCCCCC(=O)/C=C(\[O-])c1ccccc1.[La+3].[La+3]`, for which the GI50 was > 50 µM in assay [1]; > 50 µM in [2]; > 50 µM in assay [3]; > 50 µM in assay [4]; 9.33 µM in [6]; > 50 µM in [7]. The GI50 in assay [8] and in [9] was > 50 µM throughout. The TGI in assay [1] was > 50 µM; in [2], > 50 µM; in [3] it was > 50 µM; in assay [4], > 50 µM; in [6], 48.2 µM; in [7] it was > 50 µM. Further, the TGI in [8] and in assay [9] was > 50 µM throughout.

As for `COc1ccc(-n2cc(-c3ccc(OC)c(OC)c3)[nH]c2=S)cc1Cl`, the GI50 was > 100 µM in [2]; > 100 µM in assay [3]; > 100 µM in [4]; > 100 µM in assay [5]; 4.75 µM in assay [6]; 41.1 µM in assay [7]. Further, the GI50 in assay [8] and in assay [9] was > 100 µM in each case. The TGI in [2] was > 100 µM; in assay [3] it was > 100 µM; in assay [4] it was > 100 µM; in assay [5], > 100 µM; in [6] it was 21 µM; in assay [7], > 100 µM. For the same compound, the TGI in [8] and in assay [9] was > 100 µM each time.

With `Clc1cccc(NC=Nc2ccc(-c3nc4ccccc4s3)cc2)c1`, the GI50 in [1] is 13.1 µM; in assay [2], 16.1 µM; in assay [3], 16.7 µM; in assay [4], 18 µM; in assay [5] it was 9.32 µM; in assay [7], 7.85 µM. The GI50 in assay [8] is 11.7 µM. The TGI was 30.6 µM in assay [1]; 48.1 µM in assay [2]; > 50 µM in [3]; > 50 µM in [4]; 22.7 µM in assay [5]; 15.4 µM in assay [7]. This compound also came in with a TGI in assay [8] of 27.6 µM.

On to `COc1nc2c(cc1S(=O)(=O)c1ccccc1)CCc1c-2cnn1-c1ccccc1Cl`, for which the GI50 in assay [1] was 8.7 µM; in assay [3] it was > 100 µM; in assay [4], 71.7 µM; in assay [5], 8.17 µM; in assay [6] it was 5.19 µM; in assay [7], 5.94 µM. For the same compound, the GI50 in assay [9] is 4.73 µM. Further, the TGI in assay [1], in assay [3], in assay [4], in [5], in assay [6] and in [7] was > 100 µM throughout. Further, the TGI in assay [9] was > 100 µM.

For the origin of these results see PubChem BioAssay (NCI).
